Results published in US7560470B2, “Heterocyclyl-3-sulfonylindazoles as 5-hydroxytryptamine-6 ligands” (Wyeth, priority 2003, dated 2009).
Where a name gives a salt, the structure may show the parent alone. Read-outs that look alike come from different tables or passages of the source.

Tests used:
[1] = target: T1, human cloned 5-HT6 receptors (Homo sapiens, UniProt P50406); assay: 5-HT6 binding affinity, [3H]-LSD displacement on membranes of Hela cells expressing human cloned 5-HT6 receptors; conditions: for Ki: [3H]-LSD 3.0 nM, Hela cell membranes, 120 min at room temperature; for inhibition at 1 µM: test compound at 1 μM, displacement of [3H]-LSD
T1 construct: expressed in transfected cells; host or cells: HeLa cells (membrane preparation)
Description: The affinity of test compounds for the serotonin 5-HT6 receptor is evaluated in the following manner. Cultured Hela cells expressing human cloned 5-HT6 receptors are harvested and centrifuged at low speed (1,000×g) for 10.0 min to remove the culture media. The harvested cells are suspended in half volume of fresh physiological phosphate buffered saline solution and recentrifuged at the same speed. This operation is repeated. The collected cells are then homogenized in ten volumes of 50 mM Tris.HCl (pH 7.4) and 0.5 mM EDTA. The homogenate is centrifuged at 40,000×g for 30.0 min and the precipitate is collected. The obtained pellet is resuspended in 10 volumes of Tris.HCl buffer and recentrifuged at the same speed. The final pellet is suspended in a small volume of Tris.HCl buffer and the tissue protein content is determined in aliquots of 10-25 μl volumes. Bovine Serum Albumin is used as the standard in the protein determination according to the method described in Lowry et al., J. Biol. Chem., 193:265 (1951). The volume of the suspended cell membranes is adjusted to give a tissue protein concentration of 1.0 mg/ml of suspension. The prepared membrane suspension (10 times concentrated) is aliquoted in 1.0 ml volumes and stored at −70° C. until used in subsequent binding experiments.
Binding experiments are performed in a 96 well microtiter plate format, in a total volume of 200 μl. […] The test compounds are added in 20.0 μl volume.
The reaction is allowed to proceed in the dark for 120 min at room temperature, at which time, the bound ligand-receptor complex is filtered off on a 96 well unifilter with a Packard Filtermate® 196 Harvester. The bound complex caught on the filter disk is allowed to air dry and the radioactivity is measured in a Packard TopCount® equipped with six photomultiplier detectors, after the addition of 40.0 μl Microscint®−20 scintillant to each shallow well. The unifilter plate is heat-sealed and counted in a PackardTopCount® with a tritium efficiency of 31.0%.
Binding in the presence of varying concentrations of test compound is expressed as a percentage of specific binding in the absence of test compound. The results are plotted as log % bound versus log concentration of test compound. Nonlinear regression analysis of data points with a computer assisted program Prisms® yields both the IC50 and the Ki values of test compounds with 95% confidence limits.
The amount of displacement by the test compound is given in percent (%) inhibition and is derived from the following equation:
[formula] where B0 is the amount of CPM bound in the presence of the testing agent. NSB represents the CPM bound in the presence of a saturating concentration of a displacer and TB represents the total amount of CPM bound at zero (0) concentration of test compound.
Alternatively, a linear regression line of data points is plotted, from which the IC50 value is determined and the Ki value is determined based upon the following equation: Ki=IC50/(1+L/KD) where L is the concentration of the radioactive ligand used and KD is the dissociation constant of the ligand for the receptor, both expressed in nM.

T1 sequence (P50406 whole entry): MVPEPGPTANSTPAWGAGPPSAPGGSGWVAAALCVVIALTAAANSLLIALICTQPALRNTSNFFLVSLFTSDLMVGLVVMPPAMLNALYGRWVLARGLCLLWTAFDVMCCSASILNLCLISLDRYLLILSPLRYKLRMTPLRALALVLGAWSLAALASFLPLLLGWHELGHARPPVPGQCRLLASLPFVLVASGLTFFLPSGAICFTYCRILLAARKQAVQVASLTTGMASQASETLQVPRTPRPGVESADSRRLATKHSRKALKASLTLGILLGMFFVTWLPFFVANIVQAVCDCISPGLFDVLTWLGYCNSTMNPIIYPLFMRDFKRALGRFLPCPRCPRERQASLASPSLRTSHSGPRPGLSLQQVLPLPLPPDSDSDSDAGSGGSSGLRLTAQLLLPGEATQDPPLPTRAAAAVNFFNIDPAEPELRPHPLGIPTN

Compound | Ki ([1]; read-out: 5-HT6 Binding Ki) [nM] | also measured
O=S(=O)(c1ccccc1)c1n[nH]c2ccc(N3CCN(Cc4ccccc4)CC3)cc12 [Example 4, 5-(4-Benzylpiperazin-1-yl)-3-(phenylsulfonyl)-1H-indazole hydrochloride] | 86 | –
O=S(=O)(c1cccc(F)c1)c1n[nH]c2ccc(N3CCN(Cc4ccccc4)CC3)cc12 [Example 5, 5-(4-Benzylpiperazin-1-yl)-3-[(3-fluorophenyl)sulfonyl]-1H-indazole hydrochloride] | – | inhibition at 1 µM [1]: 53%
COc1cc2[nH]nc(S(=O)(=O)c3ccccc3)c2cc1N1CCN(Cc2ccccc2)CC1 [Example 7, 5-(4-Benzylpiperazin-1-yl)-6-methoxy-3-(phenylsulfonyl)-1H-indazole hydrochloride] | 113 | –
COc1cc2c(cc1N1CCN(Cc3ccccc3)CC1)c(S(=O)(=O)c1ccccc1)nn2-c1ccccc1 [Example 8, 5-(4-Benzylpiperazin-1-yl)-6-methoxy-1-phenyl-3-(phenylsulfonyl)-1H-indazole hydrochloride] | 399 | –
COc1cc2c(cc1N1CCNCC1)c(S(=O)(=O)c1ccccc1)nn2-c1ccccc1 [Example 9, 6-Methoxy-1-phenyl 3-(phenylsulfonyl)-5-piperazin-1-yl-1H-indazole hydrochloride] | 97 | –
COc1cc2c(cc1N1CCNCC1)c(S(=O)(=O)c1ccccc1)nn2-c1ccc(C(F)(F)F)cc1 [Example 10, 6-Methoxy-3-(phenylsulfonyl)-5-(piperazin-1-yl)-1-[4-(trifluoromethyl)phenyl]-1H-indazole hydrochloride] | 224 | –
Cn1nc(S(=O)(=O)c2ccccc2)c2cc(N3CCN(Cc4ccccc4)CC3)ccc21 [Example 11, 5-(4-Benzylpiperazin-1-yl)-1-methyl-3-(phenylsulfonyl)-1H-indazole] | – | inhibition at 1 µM [1]: 67%
CCn1nc(S(=O)(=O)c2ccccc2)c2cc(N3CCN(Cc4ccccc4)CC3)ccc21 [Example 12, 5-(4-Benzylpiperazin-1-yl)-1-ethyl-3-(phenylsulfonyl)-1H-indazole dihydrochloride] | 64 | –
O=S(=O)(c1ccccc1)c1nn(-c2cccc(C(F)(F)F)c2)c2ccc(N3CCN(Cc4ccccc4)CC3)cc12 [Example 28] | 136 | melting point: 146 to 150 °C
O=S(=O)(c1ccccc1)c1nn(CCc2ccccc2)c2ccc(N3CCNCC3)cc12 [Example 31] | 3 | melting point: 127 to 130 °C
O=S(=O)(c1ccccc1)c1nn(-c2ccc(C(F)(F)F)cc2)c2ccc(N3CCNCC3)cc12 [Example 33] | 19 | melting point: 170 to 172 °C
COc1cccc(-n2nc(S(=O)(=O)c3ccccc3)c3cc(N4CCNCC4)ccc32)c1 [Example 36] | 20 | melting point: 132 to 135 °C
O=S(=O)(c1ccccc1)c1nn(-c2ccc(F)cc2)c2ccc(N3CCNCC3)cc12 [Example 37] | 4 | melting point: 159 to 161 °C
O=S(=O)(c1ccccc1)c1nn(-c2ccc(F)c(Cl)c2)c2ccc(N3CCNCC3)cc12 [Example 38] | 73 | melting point: > 200 °C
O=S(=O)(c1ccccc1)c1nn(-c2cccc(C(F)(F)F)c2)c2ccc(N3CCNCC3)cc12 [Example 40] | 62 | melting point: 139 to 142 °C
O=S(=O)(c1ccccc1)c1nn(-c2ccc(I)cc2)c2ccc(N3CCNCC3)cc12 [Example 42] | 117 | melting point: > 200 °C
CCCCn1nc(S(=O)(=O)c2cccc3ccccc23)c2cc(N3CCN(C)CC3)ccc21 [Example 48] | – | Ki ([1]; 5-HT6 Binding Ki): 4 nM
O=S(=O)(c1cccc2ccccc12)c1n[nH]c2ccc(N3CCNCC3)cc12 [Example 53] | 1 | –
CN1CCN(c2ccc3[nH]nc(S(=O)(=O)c4cccs4)c3c2)CC1 [Example 54] | – | Ki ([1]; 5-HT6 Binding Ki): 8 nM
CN1CCN(c2cc(Cl)cc3c(S(=O)(=O)c4ccc(F)cc4)n[nH]c23)CC1 [Example 97, 5-Chloro-3[(4-fluorophenyl)sulfonyl]-7-(4-methylpiperazin-1-yl)-1H-indazole] | 12 | –
CC(C)c1ccc(S(=O)(=O)c2n[nH]c3c(N4CCN(C)CC4)cc(Cl)cc23)cc1 [Example 98] | 22 | –
CN1CCN(c2cc(Cl)cc3c(S(=O)(=O)c4cccc(C(F)(F)F)c4)n[nH]c23)CC1 [Example 99] | 20 | –

Further lines, with some results ahead:

Ki ([1]; read-out: 5-HT6 Binding Ki) [nM] | Compound | also measured
1 | CN1CCN(c2ccc3[nH]nc(S(=O)(=O)c4cccc5ccccc45)c3c2)CC1 [Example 14] | –
2 | CN1CCN(c2ccc3[nH]nc(S(=O)(=O)c4ccc(Cl)s4)c3c2)CC1 [Example 15] | melting point: > 250 °C
7 | CN1CCN(c2ccc3[nH]nc(S(=O)(=O)c4ccc(Br)cc4)c3c2)CC1 [Example 17] | melting point: > 250 °C
6 | CN1CCN(c2ccc3[nH]nc(S(=O)(=O)c4ccccc4F)c3c2)CC1 [Example 18] | melting point: 160 to 161 °C
2 | CN1CCN(c2ccc3[nH]nc(S(=O)(=O)c4cccc(F)c4)c3c2)CC1 [Example 19] | melting point: > 250 °C
2 | CCCn1nc(S(=O)(=O)c2cccc3ccccc23)c2cc(N3CCN(C)CC3)ccc21 [Example 45] | –
2 | CN1CCN(c2ccc3c(c2)c(S(=O)(=O)c2cccc4ccccc24)nn3C)CC1 [Example 47] | –
6 | CN1CCN(c2ccc3c(c2)c(S(=O)(=O)c2cccc4ccccc24)nn3Cc2cccc(Cl)c2)CC1 [Example 49] | –
2 | CC(C)n1nc(S(=O)(=O)c2cccc3ccccc23)c2cc(N3CCN(C)CC3)ccc21 [Example 50] | –
1 | CC(C)Cn1nc(S(=O)(=O)c2cccc3ccccc23)c2cc(N3CCN(C)CC3)ccc21 [Example 51] | –
2 | CN1CCN(c2ccc3c(c2)c(S(=O)(=O)c2cccc4ccccc24)nn3Cc2ccccc2)CC1 [Example 52] | –
5 | Cc1ccc(S(=O)(=O)c2n[nH]c3ccc(N4CCN(C)CC4)cc23)cc1 [Example 56] | –
3 | CN1CCN(c2ccc3[nH]nc(S(=O)(=O)c4ccccc4F)c3c2)CC1 [Example 58] | –
5 | CN1CCN(c2ccc3[nH]nc(S(=O)(=O)c4ccc(F)cc4)c3c2)CC1 [Example 60] | –
1 | COc1cccc(S(=O)(=O)c2n[nH]c3ccc(N4CCN(C)CC4)cc23)c1 [Example 63] | –
12 | COc1ccc(S(=O)(=O)c2n[nH]c3ccc(N4CCN(C)CC4)cc23)cc1 [Example 64] | –
4 | CN1CCN(c2ccc3[nH]nc(S(=O)(=O)c4ccccc4Cl)c3c2)CC1 [Example 65] | –
8 | CN1CCN(c2ccc3[nH]nc(S(=O)(=O)c4ccc(Cl)cc4)c3c2)CC1 [Example 67] | –
14 | CN1CCN(c2ccc3[nH]nc(S(=O)(=O)c4ccc(F)cc4F)c3c2)CC1 [Example 68] | –
3 | CN1CCN(c2ccc3[nH]nc(S(=O)(=O)c4ccc(Cl)s4)c3c2)CC1 [Example 70] | –
4 | CC(C)c1ccc(S(=O)(=O)c2n[nH]c3ccc(N4CCN(C)CC4)cc23)cc1 [Example 71] | –
2 | CN1CCN(c2ccc3[nH]nc(S(=O)(=O)c4ccc5ccccc5c4)c3c2)CC1 [Example 72] | –
26 | CCCCc1ccc(S(=O)(=O)c2n[nH]c3ccc(N4CCN(C)CC4)cc23)cc1 [Example 74] | –
2 | COc1ccc(Cl)cc1S(=O)(=O)c1n[nH]c2ccc(N3CCN(C)CC3)cc12 [Example 77] | –
62 | CN1CCN(c2ccc3[nH]nc(S(=O)(=O)c4ccc(S(C)(=O)=O)cc4)c3c2)CC1 [Example 80] | –
10 | CN1CCN(c2ccc3[nH]nc(S(=O)(=O)c4ccccc4Br)c3c2)CC1 [Example 89] | –
6 | CN1CCN(c2ccc3[nH]nc(S(=O)(=O)c4c(Cl)cccc4Cl)c3c2)CC1 [Example 91] | –
5 | CN1CCN(c2cc(Cl)cc3c(S(=O)(=O)c4cccc5ccccc45)n[nH]c23)CC1 [Example 100] | –
5 | CN1CCN(c2cccc3c(S(=O)(=O)c4cccc5ccccc45)n[nH]c23)CC1 [Example 101] | –
